Results published in US6573282B1 (priority 1995, dated 2003).
Values joined by “and” are separate entries in the source; they are usually repeats but may differ in a detail not shown here. Equal values may be shown once. “Also recorded” adds a separate entry of the source. Where a name gives a salt, the structure may show the parent alone. Read-outs that look alike come from different tables or passages of the source.

Legend:
human κ receptor = human κ receptor (Homo sapiens, UniProt P41145); test: biochemical; format: binding
[1] = tested on: formalin-induced nociception; test: Formalin-induced flinching (early and late/tonic phase), intrapaw injection; format: in vivo, rat; settings: for Formalin-Induced Flinching (Late Phase) % Maximal Efficacy / Formalin-Induced Flinching (Late Phase) ED50: intrapaw; for A50, antinociception in the second phase of flinching: i.paw injection; for % Antagonism of Late Phase Flinching: 10 minutes prior to formalin, mean ± SEM
human δ receptor = human δ receptor (Homo sapiens, UniProt P41143); test: Opiate receptor binding, δ
human μ opiate receptors = target: T1, human μ opiate receptors (Homo sapiens, UniProt P35372); test: biochemical; format: binding
T1 construct: expressed in transfected cells; host or cells: CHO cells

catalepsy = test: Catalepsy: time to dismount from a 4 cm high bar after IM injection; settings: for Time to Dismount from Bar (sec) Before Drug: before drug (baseline); for Time to Dismount from Bar (sec) Before Drug / Time to Dismount from Bar (sec) After Drug Treatment (15 min): individual rats and x ± SE; for catalepsy: unanesthetized rats, IM morphine 3 mg, loperamide 0.5 mg
acute pain models = settings: given systemically; tail clip and hot plate tail withdrawal tests (Stahl et al., Shriver et al.); cited from earlier work
[2] = tested on: carrageenan or yeast inflammatory stimulus; test: Separate tests using carrageenan or yeast as the inflammatory stimulus; format: in vivo
[3] = tested on: acetic acid-induced writhing; settings: mice, intraparenterally (Takasuna et al. 1994); cited from earlier work
[4] = tested on: yeast-injected left hind paw; test: Randall-Selitto assay, yeast-induced inflammation, paw pressure threshold; format: in vivo, rat; settings: four hours after yeast, n=10
Excerpt: Air pressure from an air line is admitted through a needle valve to a syringe into a pressure gauge which is connected by a T-tube. The syringe is mounted with a plunger downward, to which is connected a short bullet-shaped wooden peg. The pressure is applied through the wooden tip to the plantar surface of the rat's foot at a specified rate of mm Hg per second. The end point is said to have been reached when the rat starts struggling.
Typically, rats, such as albino rats (120-170 g) of the Charles River Sprague-Dawley strain, or other laboratory strain are used. Hyperalgesia [inflammation] is produced by the injection of 0.1 ml of a 20% suspension of Brewer's yeast into the plantar surface of the rat's hind foot. Thresholds can be determined using a modified apparatus described in Winter and Flataker [(1965) J. Pharm. Exp. Ther. 148:373]. The pain threshold is measured as the pressure in mm Hg required to induce the desired response [a sharp audible squeak and/or struggle] when pressure is applied to the foot. Air pressure from an air line [or other source, such as a vice] is admitted through a needle valve to a 20 ml glass syringe and to a pressure gauge. Pressure is applied to the foot of the rat at a selected rate. The agent compound to be tested is administered typically 2 hours after the yeast injection and threshold response is determined. […] Analgesic activity was determined in terms of the percentage of inhibition of response:
Inhibition (%)=Threshold of the treated group−Threshold of the control group/Threshold of the control group×100
A Randall-Selitto assay [see, Randall et al. (1957) Arch. Int. Pharmacodyn.
Each rat was injected with 100 μl of a 20% yeast solution into the plantar surface of the left hind paw. […] Control rats were treated with 10% DMSO alone [n=20]. The pain thresholds of the inflamed and non-inflamed paws were measured by application of a pressure stimulus to the paw and the paw pressure threshold in gram [g] was recorded.

Sequence of human κ receptor (P41145 whole entry): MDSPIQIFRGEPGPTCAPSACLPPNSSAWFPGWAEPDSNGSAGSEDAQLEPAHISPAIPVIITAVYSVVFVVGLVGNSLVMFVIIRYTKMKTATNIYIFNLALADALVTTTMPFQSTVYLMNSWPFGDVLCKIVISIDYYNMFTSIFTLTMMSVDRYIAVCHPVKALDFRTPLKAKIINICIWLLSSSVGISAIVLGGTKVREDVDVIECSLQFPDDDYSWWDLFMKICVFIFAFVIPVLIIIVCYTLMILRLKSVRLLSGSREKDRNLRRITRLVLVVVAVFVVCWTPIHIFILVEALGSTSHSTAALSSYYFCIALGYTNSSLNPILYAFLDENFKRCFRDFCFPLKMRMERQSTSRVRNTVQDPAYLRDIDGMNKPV
Sequence of human δ receptor (P41143 whole entry): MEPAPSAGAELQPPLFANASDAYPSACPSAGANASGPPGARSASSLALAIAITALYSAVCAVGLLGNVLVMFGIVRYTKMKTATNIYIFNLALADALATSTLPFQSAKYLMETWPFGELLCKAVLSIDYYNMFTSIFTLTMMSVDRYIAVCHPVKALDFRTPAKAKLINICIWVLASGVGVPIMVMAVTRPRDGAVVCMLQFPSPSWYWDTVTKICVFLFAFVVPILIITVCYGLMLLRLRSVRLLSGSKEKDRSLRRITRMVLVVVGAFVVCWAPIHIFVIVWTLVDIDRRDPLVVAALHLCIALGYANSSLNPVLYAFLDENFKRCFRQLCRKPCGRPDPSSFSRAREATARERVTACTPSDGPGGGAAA
T1 sequence (P35372 whole entry): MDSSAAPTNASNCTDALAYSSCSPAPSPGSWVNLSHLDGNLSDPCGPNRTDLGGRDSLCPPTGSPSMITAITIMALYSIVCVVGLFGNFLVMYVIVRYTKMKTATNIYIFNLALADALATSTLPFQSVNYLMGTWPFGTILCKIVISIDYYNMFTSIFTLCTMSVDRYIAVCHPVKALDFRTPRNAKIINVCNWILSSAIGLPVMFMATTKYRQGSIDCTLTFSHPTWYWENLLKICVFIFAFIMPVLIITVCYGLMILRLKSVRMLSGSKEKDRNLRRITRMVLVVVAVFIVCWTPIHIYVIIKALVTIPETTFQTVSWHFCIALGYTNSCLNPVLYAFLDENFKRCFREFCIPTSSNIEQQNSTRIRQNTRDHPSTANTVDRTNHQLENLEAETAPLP

O=C(N1CCCC1)C(CCN1CCC(O)(c2ccc(Cl)cc2)CC1)(c1ccccc1)c1ccccc1 [Compound 17B]
Ki (human κ receptor): 2230 nM | Formalin-Induced Flinching (Late Phase) % Maximal Efficacy [1]: 86% | Formalin-Induced Flinching (Late Phase) ED50 [1]: 4.9 μg i. paw | Ki (human δ receptor): 68 nM | Ki (human μ opiate receptors): 2.2 nM

O=C(N1CCCCC1)C(CCN1CCC(O)(c2ccccc2)CC1)(c1ccccc1)c1ccccc1 [Compound 17C]
Ki (human κ receptor): 4680 nM | Formalin-Induced Flinching (Late Phase) % Maximal Efficacy [1]: 87% | Formalin-Induced Flinching (Late Phase) ED50 [1]: 19 μg i. paw | Ki (human δ receptor): 15 nM | Ki (human μ opiate receptors): 2.5 nM

CCOC(=O)C1(c2ccccc2)CCN(CCC(C#N)(c2ccccc2)c2ccccc2)CC1 [Deiphenoxylate]
Formalin-Induced Flinching (Late Phase) % Maximal Efficacy [1]: 61% | Formalin-Induced Flinching (Late Phase) ED50 [1]: 158 μg i. paw | Ki (human δ receptor; read-out: In Vitro Binding Affinities Human Opiate Receptors Ki, δ): 315 nM

4-(4-chlorophenyl)-4-hydroxy-N,N-dimethyl-α,α-diphenyl-1-piperidinebutanamide methyl p-toluenesulfonate [Example 19]
Formalin-Induced Flinching (Late Phase) % Maximal Efficacy [1]: 69% | Formalin-Induced Flinching (Late Phase) ED50 [1]: 93 μg i. paw

CNC(=O)C(CCN1CCC(O)(c2ccc(Cl)cc2)CC1)(c1ccccc1)c1ccccc1.Cl [Example 18, 4-(p-chlorophenyl)-4-hydroxy-N-methyl-α,α-diphenyl-1-piperidinebutyramide hydrochloride]
Ki (human κ receptor): > 1000 nM | Formalin-Induced Flinching (Late Phase) % Maximal Efficacy [1]: 88% | Formalin-Induced Flinching (Late Phase) ED50 [1]: 3.2 μg i. paw | Ki (human δ receptor): 200 nM | Ki (human μ opiate receptors): 1.1 nM

CCN(C)C(=O)C(CCN1CCC(O)(c2ccc(Cl)cc2)CC1)(c1ccccc1)c1ccccc1 [Compound 17A]
Ki (human κ receptor): 1420 nM | Formalin-Induced Flinching (Late Phase) % Maximal Efficacy [1]: 91% | Formalin-Induced Flinching (Late Phase) ED50 [1]: 4.8 μg i. paw | Ki (human δ receptor): 123 nM | Ki (human μ opiate receptors): 4 nM

CN1CC[C@]23c4c5ccc(O)c4O[C@H]2[C@@H](O)C=C[C@H]3[C@H]1C5.O=S(=O)(O)O [morphine, morphine sulfate]
Time to Dismount from Bar (sec) Before Drug (catalepsy; IM morphine (3 mg) group, sulfate): 1 sec (3×) and 1 ± 1 sec and 2 sec | Time to Dismount from Bar (sec) After Drug Treatment (15 min) (catalepsy; IM morphine (3 mg), sulfate): 37 s and 31 s and 37 ± 11 s and 29 s and 52 s | catalepsy (catalepsy): significantly more cataleptic | A50, antinociception in the second phase of flinching [1]: 72 µg

CN(C)C(=O)C(CCN1CCC(O)(c2ccc(Cl)cc2)CC1)(c1ccccc1)c1ccccc1 [Ioperamide]
Formalin-Induced Flinching (Late Phase) % Maximal Efficacy [1]: 97% | Formalin-Induced Flinching (Late Phase) ED50 [1]: 6 μg i. paw

N#CC(CCN1CCC(C(=O)O)(c2ccccc2)CC1)(c1ccccc1)c1ccccc1 [Difenoxin]
Formalin-Induced Flinching (Late Phase) % Maximal Efficacy [1]: 90% | Formalin-Induced Flinching (Late Phase) ED50 [1]: 33 μg i. paw | Ki (human δ receptor): 56 nM | Ki (human μ opiate receptors): 13 nM

CN(C)C(=O)C(CCN1CCC(O)(c2ccc(Cl)cc2)CC1)(c1ccccc1)c1ccccc1 [loperamide, 4-(p-chlorophenyl)-4-hydroxy-N-N-dimethyl-α,α-diphenyl-1-piperidinebutyramide hydrochloride]
analgesic effects in acute pain models (acute pain models): little or no analgesic effects | Time to Dismount from Bar (sec) Before Drug (catalepsy; IM loperamide (0.5 mg) group, hydrochloride): 1 sec (4×) and 1 ± 0 sec | Time to Dismount from Bar (sec) After Drug Treatment (15 min) (catalepsy; IM loperamide (0.5 mg), hydrochloride): 1 sec (2×) and 3 sec and 2 sec and 2 ± 1 sec | catalepsy (catalepsy): no sign of catalepsy | antihyperalgesic activity [2]: demonstrated antihyperalgesic activity | acetic acid-induced writhing [3]: suppression | time prior to formalin injection at which administration was still efficacious ([1]; 100 μg i.paw): up to 6 hours | antinociception when injected into the paw contralateral to formalin ([1]; 100 μg i.paw, contralateral): failed to produce antinociception | antihyperalgesia when injected ipsilateral to formalin ([1]; 100 μg i.paw, ipsilateral): exhibited antihyperalgesia activity | late phase flinching behavior at the highest dose ([1]; 300 μg i.paw, hydrochloride): practically no flinching behavior; also recorded: Full efficacy | % Antagonism of Late Phase Flinching ([1]; dose 1 μg into the paw): 20 ± 7% | % Antagonism of Late Phase Flinching ([1]; dose 3 μg into the paw): 53 ± 10% | % Antagonism of Late Phase Flinching ([1]; dose 10 μg into the paw): 55 ± 15% | % Antagonism of Late Phase Flinching ([1]; dose 30 μg into the paw): 74 ± 10% | % Antagonism of Late Phase Flinching ([1]; dose 100 μg into the paw): 75 ± 11% | % Antagonism of Late Phase Flinching ([1]; dose 300 μg into the paw): 97 ± 2% | effects on early phase flinching ([1]; doses of 0.3, 3, 30 and 300 μg): no significant effects | A50, antinociception in the second phase of flinching [1]: 6 µg | Paw Pressure Threshold ([4]; dose 10 μg/100 μl/rat in 10% DMSO): 66 ± 15 g | Paw Pressure Threshold ([4]; dose 50 μg/100 μl/rat in 10% DMSO): 124 ± 29 g | Paw Pressure Threshold ([4]; dose 250 μg/100 μl/rat in 10% DMSO): 153 ± 25 g
